Laboratory results as given in ChEMBL document CHEMBL1201862, “PubChem BioAssay data set” (2004).
Structures can show the parent of a compound that is named as a salt.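 Exposure lasted 48 hours, with cells grown in 96-well plates and compounds tested at five concentrations. GI50: concentration for 50% inhibition of growth.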 Calls of active or inactive are those of the source. Cut-off read from the data, not from the text of the source: active = GI50 up to about 1.1 µM and inactive = higher.

Assays:
Test in all cases: NCI anticancer screen, dose series, 48 h
A549 = system: A549
MOLT-4 = system: MOLT-4
OVCAR-4 = system: OVCAR-4
M14 = system: M14
COLO 205 = system: COLO 205
SF-268 = system: SF-268
SK-MEL-28 = system: SK-MEL-28
SN12C = system: SN12C
KM12 = system: KM12
SF-539 = system: SF-539
NCI/ADR-RES = system: NCI/ADR-RES
LOX IMVI = system: LOX IMVI
BT-549 = system: BT-549
SK-MEL-2 = system: SK-MEL-2
OVCAR-5 = system: OVCAR-5
U-251 = system: U-251
A498 = system: A498
HOP-92 = system: HOP-92
Malme-3M = system: Malme-3M

Measured: GI50

C[C@@H]1CCC[C@]2(C)O[C@H]2CC[C@@](C)(O)[C@@H]2CC3=C(CO)C(=O)O[C@H]3[C@H]1O2
inactive: A549 > 50 µM | MOLT-4 > 50 µM | OVCAR-4 > 50 µM | M14 > 50 µM | COLO 205 > 50 µM | SF-268 > 50 µM | SK-MEL-28 > 50 µM | SN12C > 50 µM | KM12 > 50 µM | SF-539 > 50 µM | NCI/ADR-RES > 50 µM | LOX IMVI > 50 µM | BT-549 > 50 µM | SK-MEL-2 > 50 µM | OVCAR-5 > 50 µM | U-251 > 50 µM | A498 > 50 µM | HOP-92 > 50 µM

O=C(O)C1CC(c2ccc(F)cc2)=Nc2ccc(F)cc2S1 (stereo unspecified)
inactive: A549 > 100 µM | MOLT-4 > 100 µM | OVCAR-4 > 100 µM | M14 68.2 µM | COLO 205 > 100 µM | SF-268 > 100 µM | SK-MEL-28 > 100 µM | Malme-3M > 100 µM | SN12C > 100 µM | KM12 > 100 µM | SF-539 92.3 µM | NCI/ADR-RES > 100 µM | BT-549 > 100 µM | SK-MEL-2 > 100 µM | OVCAR-5 > 100 µM | U-251 > 10 µM | A498 > 100 µM | HOP-92 > 100 µM

CN[C@@H](C)[C@H](OP(=O)(O)OC1[C@@H](O)[C@H](O)C(O)[C@H](O)[C@@H]1O)c1ccccc1 (stereo partly specified)
inactive: A549 > 100 µM | MOLT-4 > 100 µM | OVCAR-4 > 100 µM | M14 > 100 µM | COLO 205 > 100 µM | SF-268 > 100 µM | SK-MEL-28 > 100 µM | Malme-3M > 100 µM | SN12C > 100 µM | KM12 > 100 µM | SF-539 16.3 µM | NCI/ADR-RES > 100 µM | BT-549 > 100 µM | SK-MEL-2 > 100 µM | OVCAR-5 > 100 µM | U-251 > 100 µM | A498 > 100 µM | HOP-92 > 100 µM

CN[C@@H]1[C@H](O)[C@H](NC)[C@H]2O[C@@]3(O)C(=O)C[C@@H](C)O[C@H]3O[C@@H]2[C@H]1O [SPECTINOMYCIN SULFATE]
inactive: MOLT-4 > 100 µM | OVCAR-4 > 100 µM | M14 > 100 µM | COLO 205 > 100 µM | SF-268 > 100 µM | SK-MEL-28 > 100 µM | Malme-3M > 100 µM | SN12C > 100 µM | KM12 > 100 µM | SF-539 > 100 µM | NCI/ADR-RES > 100 µM | LOX IMVI > 100 µM | BT-549 > 100 µM | OVCAR-5 > 100 µM | U-251 > 100 µM | A498 > 100 µM | HOP-92 > 100 µM
